Source: patent US20240309418A1, “ENZYMATIC METHODS AND COMPOSITIONS FOR POLYMERIZATION OF PHOSPHORAMIDATE AND THIOPHOSPHORAMIDATE-LINKED DNA” (The General Hospital Corporation, priority 2023, published 2024)
Several values for one entry are separate records, joined by “and”; a condition that tells them apart may be missing. Equal entries are not always repeated. Where two headings read alike, the source gives them in different places.

Experiments:
wild-type BF = wild-type BF (Geobacillus stearothermophilus, UniProt P52026); type: biochemical, Bacillus stearothermophilus; settings: for Kinetics of 3′-amino primer extension vs. absence of added divalent metals: 5 mM metal ion, 55° C., pH 8.8; for kpol of 3′-amino primer extension by wild-type BF: varying metal chloride concentration; for Kd: in the presence of 1 mM dCTP, read-out: Kd,app (apparent dissociation constant of metal ion)
Description: Primer extension assays. Except where indicated, all extension reactions were performed with 1 μM fluorescein-labeled primer, 1.5 μM template, and ˜1.1 μM purified His6-tagged protein at 55° C. in a reaction buffer composed of 40 mM Tris-HCl, pH 8.8, 1 mM DTT, and a divalent cation as specified, typically 10 mM CaCl2. Reaction mixtures were equilibrated at the indicated reaction temperature for 1 min and initiated by addition of substrate. Progress was monitored by sampling 1 μL from the reaction manually quenched into 24 μL of chilled 90% formamide, 10 mM EDTA. Quenched samples were denatured at 90° C. for 1 min and cooled to room temperature prior to separation by denaturing polyacrylamide gel electrophoresis on 20% TBE-urea gels. To maintain strand separation for long extension products, as in FIGS. 3F-3H, an unlabeled DNA oligonucleotide complementary to the template was added to the quenching buffer (˜2 μM) prior to denaturation. Typically, 3 or 4 μL of quenched sample was loaded per lane for gels of 0.75-mm thickness. Bands were visualized with a Typhoon laser scanning imager (GE Amersham) and quantified with the manufacturer's software. For acid digestion of extended products, a reaction sample was diluted with 2.5 volumes of 1% acetic acid, 10 mM EDTA in formamide and digested at 75° C. for 45 min prior to gel separation.

BF F710Y/D598A [1] = target: T1, BF F710Y/D598A (Geobacillus stearothermophilus, UniProt P52026, A338V/A406G/A407V/A456E/A482S/A505K/A513T/A699P/A741E/D309E/D325E/D540E/D696E/D751E/E459R/E695D/F710Y/G324E/G408D/G483S/G600K/G678D/H329D/H417K/H567Y/H573N/H596R/H691Q/I672M/I841M/K356Q/L337V/L358V/L461F/M462L/M605I/N487E/P645S/P870S/Q512G/Q748R/R341H/R388C/R516Q/R816K/R823H/S306R/S424P/S812N/T369S/T436A/T442V/T475V/T491A/T508A/T536V/T728S/T790M/V391S/V413A/V537I/V598A/V619T/V813A); type: biochemical; design: burst activity kpol: unit not given here; settings: for pre-steady-state rate constant for nCTP addition: 3′-amino terminal primer; for Acceleration of kinetics over Ca2+: nCTP addition
BF F710Y [2] = target: T2, BF F710Y (Geobacillus stearothermophilus, UniProt P52026, F710Y); test: Solvent deuterium kinetic isotope effect (SDKIE) of 3′-amino primer extension; type: biochemical; settings: 1 mM dCTP, 10 mM CaCl2, varying mole fraction D2O
BF = BF (Geobacillus stearothermophilus, UniProt P52026, F710Y); test: Extension of a native DNA 3′-OH primer with nCTP and trivalent cofactors; type: biochemical; settings: for pre-steady-state rate constant for extension of a native DNA 3′-OH terminus with nCTP: 5 mM metal, stoichiometric citrate, 55° C., mean±s.d.
BF F710Y/D598A [3] = target: T1, BF F710Y/D598A; type: biochemical; settings: for Effect on NP-DNA polymerization with all four nNTPs on mixed sequence templates: vs. Ca2+
BF F710Y [4] = target: T2, BF F710Y; test: Elemental thio effect on pre-steady-state NP synthesis; type: biochemical; settings: 45° C.

T1 sequence (P52026 other isoform, or with tags, fused parts or gaps with the stated changes): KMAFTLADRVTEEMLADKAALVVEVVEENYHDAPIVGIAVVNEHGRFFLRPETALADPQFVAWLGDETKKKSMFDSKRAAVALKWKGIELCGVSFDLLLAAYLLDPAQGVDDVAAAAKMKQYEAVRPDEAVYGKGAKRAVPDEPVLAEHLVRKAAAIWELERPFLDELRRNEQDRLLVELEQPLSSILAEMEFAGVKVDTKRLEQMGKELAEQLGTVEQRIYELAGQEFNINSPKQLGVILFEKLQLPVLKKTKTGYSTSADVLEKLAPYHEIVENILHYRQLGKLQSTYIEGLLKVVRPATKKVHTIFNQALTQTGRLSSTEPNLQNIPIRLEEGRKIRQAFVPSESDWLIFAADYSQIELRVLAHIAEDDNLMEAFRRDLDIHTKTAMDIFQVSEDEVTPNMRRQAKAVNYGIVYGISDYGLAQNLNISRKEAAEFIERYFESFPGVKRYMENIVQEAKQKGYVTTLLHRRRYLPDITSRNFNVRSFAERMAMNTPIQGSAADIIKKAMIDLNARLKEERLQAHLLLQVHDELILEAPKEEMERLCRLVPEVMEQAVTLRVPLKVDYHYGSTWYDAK
wild-type BF, sequence (P52026 other isoform, or with tags, fused parts or gaps with the stated changes): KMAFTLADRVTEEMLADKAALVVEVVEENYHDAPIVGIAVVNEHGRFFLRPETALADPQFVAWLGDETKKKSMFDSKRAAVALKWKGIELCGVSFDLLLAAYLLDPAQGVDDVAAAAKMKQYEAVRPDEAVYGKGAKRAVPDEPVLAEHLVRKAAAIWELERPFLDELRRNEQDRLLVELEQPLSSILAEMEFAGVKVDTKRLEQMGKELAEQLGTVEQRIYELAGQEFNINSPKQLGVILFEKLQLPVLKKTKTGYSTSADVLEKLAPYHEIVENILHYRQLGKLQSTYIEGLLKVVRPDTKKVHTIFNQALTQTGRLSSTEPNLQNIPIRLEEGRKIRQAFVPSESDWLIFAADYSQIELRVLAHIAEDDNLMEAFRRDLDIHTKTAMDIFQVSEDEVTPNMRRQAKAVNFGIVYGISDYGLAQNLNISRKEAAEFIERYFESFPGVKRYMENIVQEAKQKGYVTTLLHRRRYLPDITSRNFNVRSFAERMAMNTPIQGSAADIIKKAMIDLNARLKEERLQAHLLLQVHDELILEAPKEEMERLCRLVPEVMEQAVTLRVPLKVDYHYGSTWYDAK
T2 sequence (P52026 other isoform, or with tags, fused parts or gaps with the stated changes): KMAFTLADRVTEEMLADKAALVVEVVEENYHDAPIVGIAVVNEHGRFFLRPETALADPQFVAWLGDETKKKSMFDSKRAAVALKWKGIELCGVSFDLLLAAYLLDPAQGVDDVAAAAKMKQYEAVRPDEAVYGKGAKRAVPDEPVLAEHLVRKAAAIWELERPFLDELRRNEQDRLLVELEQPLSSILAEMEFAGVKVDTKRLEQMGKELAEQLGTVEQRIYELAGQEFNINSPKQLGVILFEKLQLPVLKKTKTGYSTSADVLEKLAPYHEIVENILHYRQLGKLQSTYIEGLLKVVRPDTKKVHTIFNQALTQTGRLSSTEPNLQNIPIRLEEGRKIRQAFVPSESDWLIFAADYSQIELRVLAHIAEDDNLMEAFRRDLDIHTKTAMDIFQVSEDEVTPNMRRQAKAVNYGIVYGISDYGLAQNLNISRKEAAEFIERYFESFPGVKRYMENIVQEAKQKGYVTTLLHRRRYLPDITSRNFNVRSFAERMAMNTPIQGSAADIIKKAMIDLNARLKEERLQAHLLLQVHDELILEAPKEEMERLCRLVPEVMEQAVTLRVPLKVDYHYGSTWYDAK

[Ba+2] [Ba^2+]
Kinetics of 3′-amino primer extension vs. absence of added divalent metals (wild-type BF): faster

[Ca+2] [Ca^2+]
Maximum reaction velocity, saturating Ca2+ vs. Mg2+ (wild-type BF; 1 mM dCTP): ~5 fold | kpol of 3′-amino primer extension by wild-type BF (wild-type BF; 1 mM dCTP): 0.075 min⁻¹ | Kinetics of 3′-amino primer extension vs. absence of added divalent metals (wild-type BF): faster | Kd (wild-type BF): 2100 µM | Kinetic effect among divalent cofactors (wild-type BF; pH 8.8 and 55° C.): largest kinetic effect | Maximum reaction velocity (wild-type BF; saturating metal ion): ~4.5 nt/hr | pre-steady-state rate constant for nCTP addition (BF F710Y/D598A [1]; 55° C.): 0.069 min⁻¹ | SDKIE (BF F710Y [2]): 1.16

[Lu+3] [Lu^3+]
burst activity kpol (BF F710Y/D598A [1]; 55° C., nCTP, mean±s.e.m): 6.9±0.7 | Effect on single-nucleotide 3′-amino primer extension (BF F710Y/D598A [1]; vs. Ca2+): significantly improved | pre-steady-state rate constant for extension of a native DNA 3′-OH terminus with nCTP (BF): 8±1×10^−3 min^−1 | Multiple turnover activity in long primer extensions relative to Sc3+ (BF F710Y/D598A [3]; 55° C.): far weaker multiple turnover activity | Effect on NP-DNA polymerization with all four nNTPs on mixed sequence templates (BF F710Y/D598A [3]): significantly improved

[Mg+2] [Mg^2+]
kpol of 3′-amino primer extension by wild-type BF (wild-type BF; 1 mM dCTP): 0.015 min⁻¹ | Kinetics of 3′-amino primer extension vs. absence of added divalent metals (wild-type BF): faster | Kd (wild-type BF): 1300 µM | Effect of added Mg2+ on NP-DNA synthesis activated by Sc3+ (BF F710Y/D598A [3]; low millimolar range): inhibited

Nc1ccn([C@H]2C[C@H](O)[C@@H](COP(O)(=S)OP(=O)(O)OP(=O)(O)O)O2)c(=O)n1 (stereo partly drawn) [Rp-dCTPαS, 2′-deoxycytidine 5′-O-(1-thiotriphosphate), reference compound]
Additional thio effect for Rp vs. Sp substrate (BF F710Y [4]; Ca2+ activated): 4 fold

[Sc+3] [Sc^3+]
pre-steady-state rate constant for nCTP addition (BF F710Y/D598A [1]; 55° C.): 7.1 ± 0.5 min⁻¹ and 6.8 ± 0.3 min⁻¹ | Acceleration of kinetics over Ca2+ (BF F710Y/D598A [1]; 55° C.): ~100 fold | Acceleration of kinetics over Ca2+ (BF F710Y/D598A [1]; 55° C., listed as Scandium(III)): > 100 fold | Effect on single-nucleotide 3′-amino primer extension (BF F710Y/D598A [1]; vs. Ca2+): significantly improved | Stabilization effect (BF F710Y/D598A [1]; vs. Ca2+): ca. −3 kcal/mol | Specificity for the Sp over Rp substrates (BF F710Y [4]; Sc3+ activated): 66 fold | thio effect (BF F710Y [4]; Sc3+ activated, mean±s.d.): 0.58±0.07 | pre-steady-state rate constant for extension of a native DNA 3′-OH terminus with nCTP (BF): 5.5±0.6×10^−3 min^−1 | 3′-OH extension compared with 3′-NH2 extension (BF; nCTP): at least three orders of magnitude slower | Length of NP-DNA strands yielded (BF F710Y/D598A [3]): ≥ 100 nts | Overall NP polymerase reaction time to yield full length products (BF F710Y/D598A [3]; Sc3+ and spermine, 55° C.): 0.9-1.3 min/nt | Effect on NP-DNA polymerization with all four nNTPs on mixed sequence templates (BF F710Y/D598A [3]): significantly improved | Full length products on mixed sequence DNA templates (BF F710Y/D598A [3]; with spermine, 55° C.): up to +71 nt | Time to synthesize full length products (BF F710Y/D598A [3]; with spermine, 55° C., +71 or +100 nt templates): 1 to 2 h | Full length products on mixed sequence DNA templates, with additional enzyme (BF F710Y/D598A [3]; with spermine, additional enzyme, 55° C.): up to +100 nt

Nc1ccn([C@H]2C[C@H](O)[C@@H](COP(O)(=S)OP(=O)(O)OP(=O)(O)O)O2)c(=O)n1 (stereo partly drawn) [Sp-dCTPαS, 2′-deoxycytidine 5′-O-(1-thiotriphosphate), reference compound]
thio effect kO/kS (BF F710Y [4]; Ca2+ activated, dCTP vs. Sp-dCTPαS, mean±s.d.): 10.6±0.5

[Sr+2] [Sr^2+]
Kinetics of 3′-amino primer extension vs. absence of added divalent metals (wild-type BF): faster

[Y+3] [Y^3+]
Effect on single-nucleotide 3′-amino primer extension (BF F710Y/D598A [1]; vs. Ca2+): significantly improved | Effect on NP-DNA polymerization with all four nNTPs on mixed sequence templates (BF F710Y/D598A [3]): significantly improved

NCCCNCCCCNCCCN [spermine]
Activation of long NP-DNA synthesis by polyamine (BF F710Y/D598A [3]): optimal at low micromolar concentrations
